Experimental data reported in US8163718B2, “Nucleoside analogues containing phosphonate or phosphonamide groups” (Gilead Sciences, Inc., priority 2008, dated 2012).

Key:
Experiment in all cases: Cytostatic cell culture assay (GI50), SRB
Format in all cases: cell-based
HCT-15 = conditions: Homo sapiens, HCT-15, 120 h; 5 days incubation
Source text: (§1) The assay is based on quantification of cell counts by a colorimetric detection of the cell associated proteins. The assay relies on the ability of sulforhodamine B (SRB) to bind to protein components of cells that have been fixed to tissue-culture plates by trichloroacetic acid (TCA). SRB is a bright-pink aminoxanthene dye with two sulfonic groups that bind to basic amino-acid residues under mild acidic conditions, and dissociate under basic conditions. As the binding of SRB is stoichiometric, the amount of dye extracted from stained cells is directly proportional to the cell mass.
(§2) Cell lines: All cell lines were obtained from ATCC (Manassas, Va.). Cultivation media containing Glutamax, and trypsin were purchased from Invitrogen (Carlsbad, Calif.). Doxorubicin, Clofarabine, TCA and SRB were from Sigma-Aldrich (St. Louis, Mo.). Gemcitabine was obtained from Moravek Biochemicals (Brea, Calif.)
(§3) • 1. Trypsinize the sub-confluent cells, count them, and adjust the cell concentrations according to the cell counts listed in Table 1. • 2. Distribute the cells into the 96-well plates in 150 μL of media. Incubate the plates overnight in humidified CO2 incubator at 37° C. • 3. Fix one plate of each cell line with TCA. Discard the cultivation media from the plates by flicking them gently and add 100 ul cold 10% (vol/vol) TCA to each well. Incubate the plates at 4 degree refrigerator for 1 hour. Discard TCA from the plates by flicking them gently. Rinse plates four times in a washing basin containing tap water. Store the plates at room temperature. These plates represent cell counts on day zero. • 4. Prepare a set of medium solutions containing various concentrations of tested compounds by making 5-fold serial dilutions in 96-well plate. Add 50 μL of the diluted compounds per well. Include controls with untreated cells and cells treated with doxorubicin, clofarabine and gemcitabine. • 5. Incubate the plates for 5 days at 37° C. • 6. Fix the plates with TCA. Discard the cultivation media from the plates by flicking them gently and add 100 ul cold 10% (vol/vol) TCA to each well. Incubate the plates at 4 degree refrigerator for 1 hour. Discard TCA from the plates by flicking them gently. Rinse plates four times in a washing basin containing tap water. • 7. Remove excess water by tapping the plates face down, gently on a paper towel. Allow the plates to air-dry at room temperature. • 8. Add 100 ul of 0.057% SRB solution in 1% (vol/vol) acetic acid to each well of the plates fixed with TCA on day zero and five. Leave at room temperature for 30 minutes. • 9. Flick the plates gently to discard SRB. Rinse the plates four times with 1% (vol/vol) Acetic Acid. • 10. Store the plates at 37 degree incubator to facilitate faster drying. • 11. Once the plates are completely dry, add 200 ul of 10 mM Tris base solution (pH 10.5) to each well. Leave at room temperature for 30 minutes for SRB to solubilize. • 12. Measure the OD at 500 nm in a microplate reader • 13. Calculate the percentage of cell-growth inhibition using the next formula: % of control cell growth=100×(ODsample−mean ODday0)/(ODneg control−mean ODday0)
(§4) For GI50 determination, plot a dose-response curve between the compound concentration and percent of growth inhibition. GI50 values can be derived by fitting dose-response curves using sigmoidal dose response equation.

Hs-578 = conditions: Hs578, 120 h; 5 days incubation
Source text: as §1, §2, §3, §4

NCI-H23 = conditions: Homo sapiens, NCI-H23, 120 h; 5 days incubation
Source text: as §1, §2, §3, §4

HCT-116 = conditions: Homo sapiens, HCT-116, 120 h; 5 days incubation
Source text: as §1, §2, §3, §4

PC3 = conditions: Homo sapiens, PC-3, 120 h; 5 days incubation
Source text: as §1, §2, §3, §4

A549 = conditions: Homo sapiens, A549, 120 h; 5 days incubation
Source text: as §1, §2, §3, §4

BT-549 = conditions: Homo sapiens, BT-549, 120 h; 5 days incubation
Source text: as §1, §2, §3, §4

Du-145 = conditions: Homo sapiens, DU-145, 120 h; 5 days incubation
Source text: as §1, §2, §3, §4

Row | SMILES | GI50 (HCT-15) [µM] | GI50 (NCI-H23) [µM] | GI50 (HCT-116) [µM] | GI50 (PC3) [µM] | GI50 (A549) [µM] | GI50 (BT-549) [µM] | GI50 (Du-145) [µM] | GI50 (Hs-578) [µM]
1 | CCOC(=O)[C@@H]1CCCN1P(=O)(COCCn1cnc2c(OC3CCCCC3)nc(N)nc21)N1CCC[C@H]1C(=O)OCC [Example 40] | > 10 | 0.252 | 2.44 | 0.109 | 8.8 | 1.78 | 0.074 | 0.276
2 | CCCCCOc1nc(N)nc2c1ncn2CCOCP(=O)(N[C@@H](C)C(=O)OCC)N[C@@H](C)C(=O)OCC [Example 41] | 6.4 | 0.011 | 0.133 | 0.01 | 0.195 | 0.301 | 0.001 | 0.062
3 | CCOC(=O)[C@H](C)NP(=O)(COCCn1cnc2c(OC3CC3)nc(N)nc21)N[C@@H](C)C(=O)OCC [Example 42] | 10 | 0.015 | 0.43 | 0.237 | 1.71 | 0.104 | 0.01 | 0.162
4 | CCOC(=O)[C@@H]1CCCC1P(=O)(COCCn1cnc2c(OC3CC3)nc(N)nc21)N1CCC[C@H]1C(=O)OCC (stereo partly shown) [Example 44] | 9.1 | 0.227 | 0.154 | 0.183 | 1.25 | 0.016 | 0.003 | 0.026
5 | CCOC(=O)[C@H](C)NP(=O)(COCCn1cnc2c(OC3CCC3)nc(N)nc21)N[C@@H](C)C(=O)OCC [Example 45] | 8.3 | 0.022 | 0.372 | 0.113 | 0.451 | 0.269 | 0.008 | 0.174
6 | CCOC(=O)[C@H](C)NP(=O)(COCCn1cnc2c(OC3CCCC3)nc(N)nc21)N[C@@H](C)C(=O)OCC [Example 46] | 6.3 | 0.023 | 0.269 | 0.085 | 0.474 | 0.286 | 0.017 | 0.096
7 | CCCCOC(=O)[C@H](C)NP(=O)(COCCn1cnc2c(OC3CCCC3)nc(N)nc21)N[C@@H](C)C(=O)OCCCC [Example 47] | 1.81 | 0.004 | 0.055 | 0.008 | 0.103 | 0.326 | 0.001 | 0.05
8 | CCCOc1nc(N)nc2c1ncn2CCOCP(=O)(N[C@@H](C)C(=O)OC(C)C)Oc1ccccc1 (stereo partly shown) [Example 54] | 2.77 | 0.067 | 0.84 | 0.472 | 0.317 | 1.77 | 0.065 | 0.894
9 | CCCOc1nc(N)nc2c1ncn2CCOCP(=O)(N[C@@H](Cc1ccccc1)C(=O)OCC)Oc1ccccc1 (stereo partly shown) [Example 55] | 0.815 | 0.009 | 0.047 | 0.059 | 0.08 | 0.756 | 0.004 | 0.149
10 | CCCOc1nc(N)nc2c1ncn2CCOCP(=O)(Oc1ccccc1)N1CCC[C@H]1C(=O)OCc1ccccc1 (stereo partly shown) [Example 56] | 3.86 | 0.389 | 1.93 | 1.25 | 2.13 | 1.09 | 0.722 | 1.49
11 | CCCOc1nc(N)nc2c1ncn2CCOCP(=O)(Oc1ccccc1)N1CCC[C@H]1C(=O)OCC (stereo partly shown) [Example 57] | 5.2 | 0.241 | 1.61 | 0.696 | 2.42 | 1.12 | 0.372 | 1.11
12 | CCCCOC(=O)[C@H](C)NP(=O)(COCCn1cnc2c(OC3CC3)nc(N)nc21)Oc1ccccc1 (stereo partly shown) [Example 58] | 1.03 | 0.003 | 0.114 | 0.06 | 0.204 | 0.585 | 0.001 | 0.042
13 | CCCOc1nc(N)nc2c1ncn2CCOCP(=O)(Oc1ccc(Cl)cc1)N1CCC[C@H]1C(=O)OCC (stereo partly shown) [Example 62] | 10 | 0.049 | 2.79 | 0.044 | 1.87 | 4.44 | 0.001 | 1.07
14 | CCCOc1nc(N)nc2c1ncn2CCOCP(=O)(Oc1ccc(C#N)cc1)N1CCC[C@H]1C(=O)OCC (stereo partly shown) [Example 63] | 3.35 | 0.001 | 0.184 | 0.002 | 0.014 | 0.282 | 0.001 | 0.007

Now from value to molecule, other results behind:

Row | GI50 (HCT-15) [µM] | GI50 (NCI-H23) [µM] | GI50 (HCT-116) [µM] | GI50 (PC3) [µM] | GI50 (A549) [µM] | GI50 (BT-549) [µM] | GI50 (Du-145) [µM] | SMILES | GI50 (Hs-578) [µM]
15 | > 10 | 0.061 | 2.52 | 0.372 | 4.09 | 1.71 | 0.108 | CCOC(=O)[C@H](C)NP(=O)(COCCn1cnc2c(OCCOC)nc(N)nc21)N[C@@H](C)C(=O)OCC [Example 48] | 0.976
16 | 5.1 | 0.002 | 0.109 | 0.003 | 0.368 | 0.05 | 0.001 | CCCCOC(=O)[C@H](C)NP(=O)(COCCn1cnc2c(OCCOC)nc(N)nc21)N[C@@H](C)C(=O)OCCCC [Example 49] | 0.025
17 | > 10 | 0.118 | 3.07 | 0.608 | 3.7 | 1.62 | 0.25 | CCOC(=O)[C@@H]1CCCN1P(=O)(COCCn1cnc2c(NC3CC3)nc(N)nc21)N1CCC[C@H]1C(=O)OCC [Example 50] | 0.308
18 | 8.5 | 0.263 | 0.85 | 0.214 | 1.67 | 0.527 | 0.256 | Nc1nc(NC2CC2)c2ncn(CCOCP(=O)(N3CCC[C@H]3C(=O)OCc3ccccc3)N3CCC[C@H]3C(=O)OCc3ccccc3)c2n1 [Example 51] | 0.096
19 | 0.534 | 0.01 | 0.118 | 0.04 | 0.168 | 0.045 | 0.002 | CCCOc1nc(N)nc2c1ncn2CCOCP(=O)(OCOC(=O)OC(C)C)OCOC(=O)OC(C)C [Example 59] | 0.061
20 | 0.766 | 0.005 | 0.079 | 0.052 | 0.091 | 0.042 | 0.002 | COc1nc(N)nc2c1ncn2CCOCP(=O)(OCOC(=O)OC(C)C)OCOC(=O)OC(C)C [Example 60] | 0.022
